From patent publication EP2891654B1, “Optically pure benzyl-4-chlorophenyl-C-glucoside derivatives as SGLT inhibitors (diabetes mellitus)” (Xuanzhu Pharma Co., Ltd., priority 2014, dated 2015)

Key:
SGLT-1 = target: T1, SGLT-1 (Homo sapiens, UniProt P13866); test: in-vitro assay: inhibition of sodium dependent [14C]-AMG uptake into CHO cells stably expressing human SGLT-1; type: cell-based; conditions: 37°C, 1hr
T1 construct: expressed in transfected cells
T1 sequence (P13866 1-664): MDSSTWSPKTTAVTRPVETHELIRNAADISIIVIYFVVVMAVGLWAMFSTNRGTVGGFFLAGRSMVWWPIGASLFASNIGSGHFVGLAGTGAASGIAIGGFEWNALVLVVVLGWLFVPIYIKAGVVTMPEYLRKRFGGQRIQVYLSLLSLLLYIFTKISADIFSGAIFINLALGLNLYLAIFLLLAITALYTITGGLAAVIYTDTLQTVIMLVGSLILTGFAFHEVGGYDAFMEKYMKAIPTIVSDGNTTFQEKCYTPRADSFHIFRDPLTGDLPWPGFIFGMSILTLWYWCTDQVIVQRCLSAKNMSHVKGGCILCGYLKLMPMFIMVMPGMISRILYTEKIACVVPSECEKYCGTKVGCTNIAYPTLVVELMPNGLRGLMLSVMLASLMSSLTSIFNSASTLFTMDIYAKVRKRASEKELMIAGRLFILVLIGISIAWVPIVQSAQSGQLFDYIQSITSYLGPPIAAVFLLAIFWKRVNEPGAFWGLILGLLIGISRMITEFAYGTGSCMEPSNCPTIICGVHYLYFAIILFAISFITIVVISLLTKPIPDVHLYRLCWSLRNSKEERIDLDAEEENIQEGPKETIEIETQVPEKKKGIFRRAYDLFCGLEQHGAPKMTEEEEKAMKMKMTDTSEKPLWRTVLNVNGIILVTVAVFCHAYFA
Protocol: In the in-vitro assay for the pharmacological activities of the present compounds, the human SGLT-2 and SGLT-1 sequences were transfected to Chinese hamster ovary cells to express stably. By measuring inhibition of the sodium dependent adsorption of [^14C]-labeled […]-D-glucopyranoside (AMG) into the cells, the half-inhibition concentration IC50 was determined. […] Buffer D: 120 mM NaCl, 4.7 mM KCl, 1.2 mM MgCl2, 2.2 mM CaCl2, 10 mM HEPES, 0.5 mM phlorizin (PH 7.4 with 1 mM Tris). Assay method: Human SGLT-2 and SGLT-1 sequences were stably expressed in the CHO cells. […] The plate was washed for five times. […] Finally, the radioactivity of [^14C]-AMG was detected with MicroBeta Trilux (purchased from PerkinElmer Co. Ltd.) according to the scintillation counting method, and the half-inhibition concentration IC50 was calculated.

[1] = rat in-vivo pharmacokinetic assay (PO); conditions: Sprague-Dawley (SD), male SD rats, 10 mg/kg; for Tmax / AUC(0-t) / AUC(0-inf) / half-life: plasma; for Tmax: time to peak the concentration in the plasma; for Cmax: peak concentration in the plasma; for AUC(0-t): area under curve from time=0→t; for AUC(0-inf): area under curve from time=0→∞
Protocol: Assay animals: 6-8 weeks aged male SD rats (purchased from Vital River Laboratories), 3 rats per compound, weighing 200-240g.
Solvent: 0.5% MC(methyl cellulose) solution + 0.1% SDS (sodium dodecyl sulfate).
Intragastric administration (PO): See Table 2 Table 2 Administration of compounds in the rat PK (pharmacokinetic) assay
Blood collection: each of 200 µL whole blood were collected at 0.17hr, 0.5hr, 1hr, 2hr, 4hr, 6hr, 8hr, 24hr, 30hr, 48hr, 54hr and 72hr. The collected blood samples were centrifuged at 4°C at 8000rpm in a low temperature high-speed centrifuge (5415R, Eppendorf) for 6mins to separate the blood plasma. The separated plasma was preserved at -80 °C in a refrigerator.
20µL of the plasma was carefully taken out, to which was added 600µL of an internal standard MTBE (methyl tert-butyl ether) solution (containing internal standard dapagliflozin 25ng/ml). The plasma was subjected to a vortex at 1500 rpm for 10mins, and then centrifuged at 12000 rpm for 5mins. 400µL of the supernatant was taken and blow-dried with nitrogen gas. The dried substance was redissolved with 200µL of a redissolving solution (acetonitrile:water=7:3). The solution was subjected to a vortex for 10mins, and analyzed with LC-MS/MS (API4000, Aplplied Biosystems). Table 3. Rat PK (pharmacokinetic) evaluation results (PO) for the compounds

SGLT-2 = target: T2, SGLT-2 (Homo sapiens, UniProt P31639); test: in-vitro assay: inhibition of sodium dependent [14C]-AMG uptake into CHO cells stably expressing human SGLT-2; type: cell-based; conditions: for IC50: CHO cells stably expressing human SGLT-2, [14C]-AMG uptake, 37°C, 1hr; for Selectivity: ratio SGLT-1 IC50 / SGLT-2 IC50
T2 construct: expressed in transfected cells
T2 sequence (P31639 1-672): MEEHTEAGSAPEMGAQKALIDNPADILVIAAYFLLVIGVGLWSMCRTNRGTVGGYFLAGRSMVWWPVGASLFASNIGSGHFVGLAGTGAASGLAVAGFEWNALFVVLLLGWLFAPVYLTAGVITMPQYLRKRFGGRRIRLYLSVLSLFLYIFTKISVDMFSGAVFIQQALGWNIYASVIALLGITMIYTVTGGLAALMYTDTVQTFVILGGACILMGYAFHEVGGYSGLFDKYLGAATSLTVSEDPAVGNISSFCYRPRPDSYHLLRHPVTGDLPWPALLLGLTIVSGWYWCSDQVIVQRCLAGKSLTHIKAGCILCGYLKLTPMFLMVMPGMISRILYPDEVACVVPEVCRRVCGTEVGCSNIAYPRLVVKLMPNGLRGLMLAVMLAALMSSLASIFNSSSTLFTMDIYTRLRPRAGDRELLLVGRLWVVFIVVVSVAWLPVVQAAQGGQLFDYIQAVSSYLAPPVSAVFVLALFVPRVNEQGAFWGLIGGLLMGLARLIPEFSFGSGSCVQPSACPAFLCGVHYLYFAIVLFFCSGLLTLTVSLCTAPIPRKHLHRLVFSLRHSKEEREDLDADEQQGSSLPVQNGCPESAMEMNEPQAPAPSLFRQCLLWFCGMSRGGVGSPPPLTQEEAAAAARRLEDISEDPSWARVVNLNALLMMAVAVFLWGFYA
Protocol: In the in-vitro assay for the pharmacological activities of the present compounds, the human SGLT-2 and SGLT-1 sequences were transfected to Chinese hamster ovary cells to express stably. By measuring inhibition of the sodium dependent adsorption of [^14C]-labeled […]-D-glucopyranoside (AMG) into the cells, the half-inhibition concentration IC50 was determined.
Buffer A (KRH-Na^+): 120 mM NaCl, 4.7 mM KCI, 1.2 mM MgCl2, 2.2 mM CaCl2, 10 mM HEPES (PH 7.4 with 1 mM Tris).
Buffer A- (KRH-NMG): 120 mM NMG, 4.7 mM KCl, 1.2 mM MgCl2, 2.2 mM CaCl2, 10 mM HEPES (PH 7.4 with 1 mM Tris).
Buffer D: 120 mM NaCl, 4.7 mM KCl, 1.2 mM MgCl2, 2.2 mM CaCl2, 10 mM HEPES, 0.5 mM phlorizin (PH 7.4 with 1 mM Tris).
Assay method: Human SGLT-2 and SGLT-1 sequences were stably expressed in the CHO cells. The cell culture was conducted in a 96-well plate for 12hr. The plate was washed with KRH-Na+ (Buffer A) or KRH-NMG (Buffer A-) buffering solution for three times, 200µL/well. Then the plate was added with a buffering solution containing Buffer A or Buffer A- plus [^14C]-AMG (10 µCi/mL), 100µL/well. The cell culture was conducted at 37°C for 1hr. Then, 100µL of an ice pre-cooled buffering solution (Buffer D) was added to terminate the assay. The plate was washed for five times. Then an ice pre-cooled lytic buffering solution (100mM NaOH solution) was added, 20 µL/well, and the centrifugation at 600rpm was conducted for 5mins. Then Microscint 40 solution was added, 80 µl/well, and the centrifugation at 600rpm was conducted for 5mins. Finally, the radioactivity of [^14C]-AMG was detected with MicroBeta Trilux (purchased from PerkinElmer Co. Ltd.) according to the scintillation counting method, and the half-inhibition concentration IC50 was calculated.

Row | Structure (SMILES) | IC50 (SGLT-1) [nM] | Tmax [1] [h] | IC50 (SGLT-2) [nM] | Selectivity (SGLT-2) | Cmax [1] [ng/mL] | AUC(0-t) [1] [ng·h/mL] | AUC(0-inf) [1] [ng·h/mL] | half-life [1] [h]
1 | OC[C@H]1O[C@@H](c2ccc(Cl)c(Cc3ccc(O[C@H]4C[C@@H]5C[C@@H]5C4)cc3)c2)[C@H](O)[C@@H](O)[C@@H]1O [Compound represented by formula (II), (2S,3R,4R,5S,6R)-2-(3-(4-(((1R,3s,5S)-bicyclo[3.1.0]hexan-3-yl)oxy)benzyl)-4-chlorophenyl)-6-(hydroxymethyl)tetrahydro-2H-pyran-3,4,5-triol] | 17200 | 1 | 2.5 | 6886.93 | – | – | – | –
2 | OC[C@H]1O[C@@H](c2ccc(Cl)c(Cc3ccc(O[C@@H]4C[C@@H]5C[C@@H]5C4)cc3)c2)[C@H](O)[C@@H](O)[C@@H]1O [Compound represented by formula (III), (2S,3R,4R,5S,6R)-2-(3-(4-(((1R,3r,5S)-bicyclo[3.1.0]hexan-3-yl)oxy)benzyl)-4-chlorophenyl)-6-(hydroxymethyl)tetrahydro-2H-pyran-3,4,5-triol] | – | – | 7.83 | – | – | – | – | –
3 | OC[C@H]1O[C@H](c2ccc(Cl)c(Cc3ccc(O[C@H]4C[C@@H]5C[C@@H]5C4)cc3)c2)[C@H](O)[C@@H](O)[C@@H]1O [Compound represented by formula (IV), (2R,3R,4R,5S,6R)-2-(3-(4-(((1R,3s,5S)-bicyclo[3.1.0]hexan-3-yl)oxy)benzyl)-4-chlorophenyl)-6-(hydroxymethyl)tetrahydro-2H-pyran-3,4,5-triol] | – | – | 1110 | – | – | – | – | –
4 | OC[C@H]1O[C@H](c2ccc(Cl)c(Cc3ccc(O[C@@H]4C[C@@H]5C[C@@H]5C4)cc3)c2)[C@H](O)[C@@H](O)[C@@H]1O [Compound represented by formula (V), (2R,3R,4R,5S,6R)-2-(3-(4-(((1R,3r,5S)-bicyclo[3.1.0]hexan-3-yl)oxy)benzyl)-4-chlorophenyl)-6-(hydroxymethyl)tetrahydro-2H-pyran-3,4,5-triol] | – | – | 282 | – | – | – | – | –
5 | OC[C@H]1OC(c2ccc(Cl)c(Cc3ccc(OC4CC5CC5C4)cc3)c2)[C@H](O)[C@@H](O)[C@@H]1O (some centres unmarked) [Reference compound 1] | 2400 | 2 | 3.63 | 660.52 | 4140 | 69600 | 70300 | 10.3
6 | OC[C@H]1O[C@@H](c2ccc(Cl)c(Cc3ccc(OC4CC5CC5C4)cc3)c2)[C@H](O)[C@@H](O)[C@@H]1O (some centres unmarked) [Reference compound 2] | – | 2 | – | – | 4980 | 69300 | 69400 | 8.18
